Laboratory results reported in patent US5219867A, “Platelet aggregation inhibitory agents” (priority 1992, dated 1993).
Structures can show the parent of a compound that is named as a salt. Where two headings read alike, the source gives them in different places.

System: cytosolic ionized calcium in human platelets
Test: Inhibition of collagen-induced rise in cytosolic ionized calcium (aequorin luminescence)
Format: cell-based
Settings: for IC50: 1mM [Ca2+]o (n = 4), read-out: Ica50 ± S.E. Collagen-induced (50% inhibition of collagen-induced rise in cytosolic ionized calcium)
Method: Procedure for Cytosolic Ionized Calcium Determination. The basic procedure of Yamaguchi, et al. (Thromb. Res., Vol. 44, Pages 165-174, 1986) was followed. Blood was collected from six blood donors, aged 24-38 years, who had fasted overnight and affirmed abstinence from alcohol, caffeine and medications of any kind for a period of at least one week prior to donation. […] Platelets were collected (800 g, 15 min), resuspended in and washed (800 g, 15 min) with HEPES-buffered saline (140 mM NaCl, 2.7 mM KCl, 0.1% bovine albumin, 0.5% glucose, 3.8 mM HEPES, pH 7.6) with EGTA (5 mM) and PGE1 (1 μM). The platelet pellet was resuspended in 90 μl of the same buffer and added to 20μl of 3 mg/ml aequorin solution in a 1.5 ml Eppendorf centrifuge tube. Six 1 μl aliquots of DMSO were added at 90 second intervals with brief, gentle mixing on a Vortex mixer and the platelet suspension was incubated 2 minutes after the last addition. One ml of HEPES-buffered saline was added, gently mixed, and again incubated for 2 minutes. The platelets were pelleted (1000 g, 30 sec), resuspended in HEPES-buffered saline to which was added either 1 mM Mg Cl2, (calcium-free buffer) or 1 mM Mg Cl2 and 1 mM Ca Cl2 (calcium buffer), depending on the experiment. The platelet count was adjusted to 3-4×10^5 platelets/μl.
The Platelet Ionized Calcium Aggregometer (Chrono-Log Corp., Ltd., Havertown, Pa.) was used to obtain simultaneous aggregation and luminescence data under the following experimental conditions: (1) platelet suspension, 1 ml, was equilibrated at 37° C. with stirring at 1100 rpm; (2) 100 μl (1.2 μg) of fibrinogen was added; (3) the vehicle (95% ethanol) or the test compound in vehicle was added; (4) when needed, 10 μl of the desired concentration of EGTA was added 30 seconds prior to addition of the agonist; then (5) the agonist (Collagen, 5 μg or 20 μg) was added and the time noted. At one minute after addition of the agonist in Channel 1, a platelet sample containing fibrinogen in Channel 2 was lysed with 10 μl of a 1:1 solution of Triton X-100 (final concentration 0.005%) 10 mM CaCl2 (final concentration 0.5 mM). Treated and control […] data were corrected for time dependent decay of fluorescence using data from the untreated lysed controls.
Normally 4 compound-treated samples (at 4 different concentrations) interspersed with 3 control samples were evaluated at 4.5 minute intervals starting 18-23 minutes after the DMSO treatment. The Ia50 values were calculated as described earlier. The compound concentrations effecting 50% inhibition (Ica50) of collagen-induced cytosolic ionized calcium values was determined by linear regression analysis.
Compounds I-rac, (+)-I,(IC) and (-)-I(IA) were evaluated. The Ia50 (collagen-induced aggregation) and Ica50 (compound concentration required to inhibit by 50% the collagen-induced rise in cytosolic ionized calcium)values determined with platelet suspensions in HEPES-buffered saline containing 1.0 mM CaCl2 were as follows:
Collagen-stimulation of platelets suspended in media containing 1.0 mM of Ca^2+ (FIG. 13) or 1.0 mM (FIG. 14A) or 2.0 mM (FIG. 14B) EGTA (a calcium chelator) gave […] cytosolic ionized calcium peak (aequorin-indicated luminescence). Contrarily, two phases of Ca^2+ mobilization were observed when aequorin-loaded human platelets suspended in a medium containing 0.1 mM EGTA were stimulated with collagen (FIG. 14, designation D). The first corresponded to platelet shape change and the second peak to aggregation. […] The platelet suspension (1.0 ml) was pre-incubated with 1.0 μl of (A) 95% ethanol, (B) a solution of Compound I (14.59 μM) in 95% ethanol, or (C) a solution of Compound I (23.87 μM) in 95% ethanol. Collagen (20 μg) was added at time indicated by the arrows. Luminescence was again recorded at a gain of 0.5. […] Accordingly, the stereo-selective inhibitory properties of the compounds of the present invention appear to be mediated through the inhibition of [Ca^2+ ].

SMILES | Effect on platelet shape change peak and aggregation peak of Ca2+ mobilization (0.1 mM EGTA, collagen 20 μg, Compound I 14.59 μM or 23.87 μM (FIG. 15)) | IC50 (Homo sapiens, Platelet, collagen-induced) | IC50 (collagen-induced, listed as IC (+)-I, dihydrobromide) | Potency in inhibiting the rise of cytosolic ionized calcium compared to racemic I, I-A and IB (collagen-induced, Ca2+-containing medium)
CCN(CC)C(=O)C1CCCN(Cc2ccc(CN3CCCC(C(=O)N(CC)CC)C3)cc2)C1 (racemic) [Compound I, α-α'-Bis[3-(N,N-diethyl-carbamoyl)piperidino]-p-xylene dihydrobromide] | inhibited both the platelet shape change peak and the aggregation peak | 21.2 µM |  | 
CCN(CC)C(=O)C1CCCN(Cc2ccc(CN3CCCC(C(=O)N(CC)CC)C3)cc2)C1 (single isomer, unassigned) [IC, α-α'-Bis(3-N,N-diethylcarbamoyl)piperidino]-p-xylene dihydrobromide] |  |  | 3.6 ± 1.2 µM | much more potent
